Legend:
[1] = test system: S473 AKT phosphorylation in HEK293 cells; test: Insulin-induced AKT phosphorylation in HEK293 cells; format: cell-based, human; conditions: peptide included during serum starvation and insulin stimulation (100 nM, 30 min), dose-dependent
Procedure: (§1) FIG. 3A is the amino acid sequence of the C-terminal region of K-Ras 4B—the helix α5 is highlighted and K-tetracosapeptide is underlined. Its predicted structure is shown on the right: positively- and negatively-charged surfaces are highlighted. FLAG-tagged GTP-bound K-Ras 4BG12V was incubated with GDP-loaded GFP-RhoA in the presence of K-tetracosapeptide (K-TC) or a scrambled peptide (50, 250, and 1250 nM). GFP-RhoA was pulled down using GFP-Trap beads. The pellets were analyzed by Western blotting using antibodies to FLAG and GFP (FIG. 3B) and quantified by band intensity (FIG. 3C). Bars are mean±SD (n=3). FIG. 3D is a schematic of the interaction of K-Ras 4B and RhoA in the presence of K-tetracosapeptide (K-TC) or a scrambled peptide. […] S473 AKT phosphorylation was analyzed by Western blotting (FIG. 3E) and band intensity of phospho-AKT relative to total AKT was quantified (FIG. 3F). Bars are mean±SD (n=3). After serum starvation, HEK293 cells were stimulated by insulin. […] S473 AKT phosphorylation was analyzed by Western blotting. (FIG. 3G) and band intensity was quantified (FIG. 3H). […]
Insulin-induced AKT phosphorylation in cells HEK293 cells and differentiated 3T3-L1 adipocytes were washed with serum-free DMEM and incubated with serum-free DMEM for 5 h. […] After clarification, cell lysates were analyzed by Western blotting.

[2] = test system: phosphorylation of AKT and TBC1D4 in 3T3-L1 adipocytes; test: Insulin-induced phosphorylation of AKT and TBC1D4 in 3T3-L1 adipocytes; format: cell-based, mouse; conditions: differentiated WT 3T3-L1 adipocytes; peptide pre-treatment 5 h, 100 nM insulin 30 min
Procedure: (§2) Differentiation into adipocytes was induced in WT 3T3-L1 cells and RhoA-KO 3T3-L1 cells expressing the indicated FLAG-RhoA proteins. Differentiation was analyzed Western blotting using anti-adiponectin antibodies (FIG. 6A) and band intensity was quantified (FIG. 6B). Bars are mean f SD (n=3). FIG. 6C is images of WT and RhoA-KO 3T3-L1 cells stained with oil red O before and after induction of the differentiation. FIG. 6D is images RhoA-KO 3T3-L1 cells expressing the indicated RhoA proteins and analyzed by oil red O stain after induction of differentiation. Differentiated WT 3T3-L1 adipocytes were stimulated with insulin after serum starvation in the presence of TAT-K-tetracosapeptide or a TAT peptide. Phosphorylation of AKT and TBC1D4 was analyzed by Western blotting (FIG. 6E) and quantification of band intensity (FIG. 6F). Bars are mean±SD (n=3). […]
(§3) Insulin-induced AKT phosphorylation and translocation of GLUT4 in 3T3-L1 adipocytes To examine AKT phosphorylation, differentiated WT 3T3-L1 adipocytes were incubated in serum-free DMEM medium for 5 h and stimulated with 100 nM insulin for 30 min. […] After clarification, cell lysates were analyzed by Western blotting using antibodies to AKT (Cell Signaling, 9272) and phospho-AKT (Serine 473) (Cell Signaling, 9271). […]

[3] = test system: transport of GLUT4-GFP to the plasma membrane in 3T3-L1 adipocytes; test: Insulin-induced translocation of GLUT4-GFP in 3T3-L1 adipocytes (confocal microscopy); format: cell-based, mouse; conditions: 3T3-L1 adipocytes carrying GLUT4-GFP; insulin 30 min after serum starvation
Procedure: as §2, §3

[4] = biological target: T1, KARATE (mTORC2 mixed with GTP-bound K-Ras 4BG12V and GDP-loaded RhoA) (Homo sapiens, UniProt P61586, G12V); test: In vitro reconstitution of mTORC2-mediated AKT phosphorylation; format: biochemical; conditions: S473 AKT phosphorylation by Western blotting; peptide 50, 250 and 1250 nM
T1 construct: made in house; host or cells: K-Ras 4B G12V and RhoA from Dictyostelium cells; AKT1 purchased (Sigma, 14-279)
Procedure: as §1, with “(n=3).” for “(n=3). FIG. 3D is a schematic of the interaction of K-Ras 4B and RhoA in the presence of K-tetracosapeptide (K-TC) or a scrambled peptide.”, “3F).” for “3F). Bars are mean±SD (n=3). After serum starvation, HEK293 cells were stimulated by insulin.”
In vitro reconstitution of mTORC2-mediated AKT phosphorylation The kinase activity of mTORC1 and mTORC2 was measured as described previously by Huang, Sarbassov dos, and Senoo (Methods Mol Biol 821, 75-86(2012), Methods Mol Biol 821, 59-74(2012), and Nat Cell Biol 21, 867-878(2019), respectively) with some modifications. […] AKT phosphorylation was detected by Western blotting with anti-phospho-AKT (serine 473) antibodies (Cell Signaling, 9271).

[5] = biological target: T2, interaction of purified GTP-K-Ras 4B and GDP-RhoA (Homo sapiens, UniProt P61586, G12V); test: In vitro protein-protein interaction assay (GFP-Trap pull-down, Western blotting); format: binding; conditions: peptide 50, 250 and 1250 nM, dose-dependent, FLAG-K-Ras 4BG12V pulled down with GFP-RhoA
T2 construct: made in house; host or cells: Dictyostelium cells
Procedure: as §1, with “(n=3).” for “(n=3). FIG. 3D is a schematic of the interaction of K-Ras 4B and RhoA in the presence of K-tetracosapeptide (K-TC) or a scrambled peptide.”, “3F).” for “3F). Bars are mean±SD (n=3). After serum starvation, HEK293 cells were stimulated by insulin.”
FLAG-tagged K-Ras4A and K-Ras 4B were eluted from anti-FLAG beads by incubation with 1 M arginine at room temperature for 5 min. Amounts of purified proteins were quantified on CBB-stained SDS-PAGE gels using ImageJ software with BSA as a standard. […] GFP-Trap beads were washed three times in 1 mM MgCl2, 100 mM potassium acetate, 25 mM HEPES (pH 7.4), and bound proteins were analyzed by Western blotting.

T1 sequence (P61586 whole entry G12V): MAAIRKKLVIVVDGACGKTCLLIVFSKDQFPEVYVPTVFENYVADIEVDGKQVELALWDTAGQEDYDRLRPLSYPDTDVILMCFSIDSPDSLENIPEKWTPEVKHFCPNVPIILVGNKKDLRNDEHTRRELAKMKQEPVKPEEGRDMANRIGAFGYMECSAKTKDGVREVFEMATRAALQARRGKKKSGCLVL
T2 sequence (P61586 whole entry G12V): as above

Row | Sequence | effect on insulin-stimulated AKT phosphorylation in cells [1] | effect on insulin-induced phosphorylation of AKT [2] | effect on insulin-induced phosphorylation of TBC1D4 [2] | effect on insulin-induced transport of GLUT4-GFP to the plasma membrane [3] | effect on AKT phosphorylation in vitro [4] | effect on the interaction of purified GTP-K-Ras 4B and GDP-RhoA [5]
1 | GRKKRRQRRRPQGVDDAFYTLVREIRKHKEKMSKDG [TAT-K-tetracosapeptide, K-tetracosapeptide fused to a cell-permeable TAT peptide] | blocked in a dose-dependent manner | blocked | blocked | strongly inhibited |  | 
2 | GVDDAFYTLVREIRKHKEKMSKDG [K-tetracosapeptide, peptide of 24 amino acids corresponding to the helix α5 in K-Ras 4B] |  |  |  |  | blocked | greatly decreased

Reference: US20240294587A1, “K-RAS INHIBITOR” (THE JOHNS HOPKINS UNIVERSITY, priority 2021, published 2024)
